Data taken from PubChem BioAssay AID1963849 (Molecular Pharmacology Branch, DTP, NCI, 2024).

Tested on: 299254-011-R-J1-PDC complex spheroid viability
Experiment: Anticancer human tumor 299254-011-R-J1-PDC patient-derived melanoma cell line growth inhibition [POLQ]
Conditions: for IC50: curve of first compound; for viability, T/C: stronger effect = lower value
How it was run: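 PDC + HUVEC + MSC complex spheroids; POLQ inhibitors ± partner drugs; top conc. at/near clinical Cmax, else 10 microM (SN-38 1 microM), half-log dilutions; 37 degrees C, 5% CO2.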

[1] = second compound 0.0316 µM, first compound 0.0316 µM
[2] = second compound 0.0316 µM, first compound 0.1 µM
[3] = second compound 0.0316 µM, first compound 0.316 µM
[4] = second compound 0.0316 µM, first compound 1 µM
[5] = second compound 0.0316 µM, first compound 3.16 µM
[6] = second compound 0.0316 µM, first compound 10 µM
[7] = second compound 0.1 µM, first compound 0.0316 µM
[8] = second compound 0.1 µM, first compound 0.1 µM
[9] = second compound 0.1 µM, first compound 0.316 µM
[10] = second compound 0.1 µM, first compound 1 µM
[11] = second compound 0.1 µM, first compound 3.16 µM
[12] = second compound 0.1 µM, first compound 10 µM
[13] = second compound 0.316 µM, first compound 0.0316 µM
[14] = second compound 0.316 µM, first compound 0.1 µM
[15] = second compound 0.316 µM, first compound 0.316 µM
[16] = second compound 0.316 µM, first compound 1 µM
[17] = second compound 0.316 µM, first compound 3.16 µM
[18] = second compound 0.316 µM, first compound 10 µM
[19] = second compound 1 µM, first compound 0.0316 µM
[20] = second compound 1 µM, first compound 0.1 µM
[21] = second compound 1 µM, first compound 0.316 µM
[22] = second compound 1 µM, first compound 1 µM
[23] = second compound 1 µM, first compound 3.16 µM
[24] = second compound 1 µM, first compound 10 µM
[25] = second compound 3.16 µM, first compound 0.0316 µM
[26] = second compound 3.16 µM, first compound 0.1 µM
[27] = second compound 3.16 µM, first compound 0.316 µM
[28] = second compound 3.16 µM, first compound 1 µM
[29] = second compound 3.16 µM, first compound 3.16 µM
[30] = second compound 3.16 µM, first compound 10 µM
[31] = second compound 10 µM, first compound 0.0316 µM
[32] = second compound 10 µM, first compound 0.1 µM
[33] = second compound 10 µM, first compound 0.316 µM
[34] = second compound 10 µM, first compound 1 µM
[35] = second compound 10 µM, first compound 3.16 µM
[36] = second compound 10 µM, first compound 10 µM
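Further: spheroids exposed to drugs for one week before measurement.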
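Wherever viability, T/C is given: percent viability relative to DMSO vehicle control taken as 100%.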

## CCc1cc2c(N3CCc4c(cc(Cn5ccnc5)cc4-c4cn(C)nc4C(F)(F)F)C3=O)cc(C)nc2c(OC)n1 + COC1C(OC(N)=O)C(O)C(Oc2ccc3c(O)c(NC(=O)c4ccc(O)c(CC=C(C)C)c4)c(=O)oc3c2C)OC1(C)C
Second compound 0.0316 µM
  IC50: > 10 µM
Second compound 0.1 µM
  IC50: > 10 µM
Second compound 0.316 µM
  IC50: > 10 µM
Second compound 1 µM
  IC50: > 10 µM
Second compound 3.16 µM
  IC50: > 10 µM
Second compound 10 µM
  IC50: > 10 µM
[1]
  viability, T/C: 96.8%
[2]
  viability, T/C: 96.1%
[3]
  viability, T/C: 109%
[4]
  viability, T/C: 81.1%
[5]
  viability, T/C: 91.5%
[6]
  viability, T/C: 69.5%
[7]
  viability, T/C: 99.8%
[8]
  viability, T/C: 95.3%
[9]
  viability, T/C: 104%
[10]
  viability, T/C: 108%
[11]
  viability, T/C: 107%
[12]
  viability, T/C: 63.9%
[13]
  viability, T/C: 107%
[14]
  viability, T/C: 121%
[15]
  viability, T/C: 103%
[16]
  viability, T/C: 106%
[17]
  viability, T/C: 88.4%
[18]
  viability, T/C: 66.8%
[19]
  viability, T/C: 116%
[20]
  viability, T/C: 110%
[21]
  viability, T/C: 114%
[22]
  viability, T/C: 99.6%
[23]
  viability, T/C: 94.5%
[24]
  viability, T/C: 67.4%
[25]
  viability, T/C: 106%
[26]
  viability, T/C: 107%
[27]
  viability, T/C: 100%
[28]
  viability, T/C: 106%
[29]
  viability, T/C: 99.2%
[30]
  viability, T/C: 70.6%
[31]
  viability, T/C: 96.3%
[32]
  viability, T/C: 105%
[33]
  viability, T/C: 110%
[34]
  viability, T/C: 106%
[35]
  viability, T/C: 93.5%
[36]
  viability, T/C: 73.9%

## CCc1cc2c(N3CCc4c(cc(Cn5ccnc5)cc4-c4cn(C)nc4C(F)(F)F)C3=O)ccnc2c(OC)n1 + COC1C(OC(N)=O)C(O)C(Oc2ccc3c(O)c(NC(=O)c4ccc(O)c(CC=C(C)C)c4)c(=O)oc3c2C)OC1(C)C
Second compound 0.0316 µM
  IC50: > 10 µM
Second compound 0.1 µM
  IC50: > 10 µM
Second compound 0.316 µM
  IC50: > 10 µM
Second compound 1 µM
  IC50: > 10 µM
Second compound 3.16 µM
  IC50: > 10 µM
Second compound 10 µM
  IC50: > 10 µM
[1]
  viability, T/C: 115%
[2]
  viability, T/C: 104%
[3]
  viability, T/C: 111%
[4]
  viability, T/C: 116%
[5]
  viability, T/C: 107%
[6]
  viability, T/C: 82.2%
[7]
  viability, T/C: 110%
[8]
  viability, T/C: 105%
[9]
  viability, T/C: 101%
[10]
  viability, T/C: 85.2%
[11]
  viability, T/C: 92.2%
[12]
  viability, T/C: 71.3%
[13]
  viability, T/C: 93%
[14]
  viability, T/C: 121%
[15]
  viability, T/C: 101%
[16]
  viability, T/C: 95.8%
[17]
  viability, T/C: 101%
[18]
  viability, T/C: 91.4%
[19]
  viability, T/C: 107%
[20]
  viability, T/C: 110%
[21]
  viability, T/C: 106%
[22]
  viability, T/C: 106%
[23]
  viability, T/C: 113%
[24]
  viability, T/C: 84.7%
[25]
  viability, T/C: 99.3%
[26]
  viability, T/C: 101%
[27]
  viability, T/C: 116%
[28]
  viability, T/C: 114%
[29]
  viability, T/C: 92.9%
[30]
  viability, T/C: 80%
[31]
  viability, T/C: 120%
[32]
  viability, T/C: 99.2%
[33]
  viability, T/C: 111%
[34]
  viability, T/C: 118%
[35]
  viability, T/C: 97.5%
[36]
  viability, T/C: 81.4%
